# Results published in publication PMC9822133, “Design, Synthesis and Antiproliferative Evaluation of Bis-Indole Derivatives with a Phenyl Linker: Focus on Autophagy” (Molecules, 2022).
# How the values were obtained:
# [1] = test system: A549 human lung cancer cells; assay: MTT assay with cis-platin alone or combined with compound 49; format: cell-based; conditions: A549, CisPt alone 10.0 μM, 72 h
# Source text: Furthermore, the depletion of GSH has been documented to potentiate the effect of anticancer drugs. Glutathione plays an important role in cisPt detoxification, so depletion of GSH is believed to potentiate the cisPt-induced DNA damage and increase the chemosensitivity of cancer cells to this anticancer drug. Due to the GSH-depleting effect of compound 49, we performed a set of experiments with cis-platin (CisPt) alone or in combination with compound 49 (Figure 9). […] Simultaneous treatments with CisPt (10 μM) and 20 μM of compound 49 caused a 59% reduction in cell growth.
# (§1) The MTT assay is a colorimetric method used to quantify the metabolic activity of cells. MTT (3-(4,5-di-methylthiazol-2-yl)2,5-diphenyltetrazolium bromide) (Sigma-Aldrich Chemie, Steinheim, Germany) is reduced by oxidoreductases in the cytosol of cells to light-absorbing formazan, the presence of which can be measured spectrophotometrically and determines the half-maximal inhibitory concentration (IC50). […]
# (§2) We also incubated the cells with chloroquine at concentrations of 5–20 µM, which was added 1 h before the addition of the test substance, and cisplatin at concentrations of 3–10 µM. […] After 24 h, the absorbance was measured at a wavelength of 540 nm using an automated Cytation™ 3 Cell Imaging Multi-Mode Reader (Biotek, Winooski, VT, USA). […]
# MCF-7 = assay: MTT screening assay, MCF-7; format: cell-based; conditions: Homo sapiens, MCF7, 72 h incubation
# Source text: (§3) The ability of newly synthesized indole phytoalexins to suppress cell proliferation was screened in vitro on eight cancer cell lines including human colorectal carcinoma (Caco-2 and HCT116), human cervical cancer (HeLa), human breast adenocarcinoma (MCF-7, MDA-MB-231), human alveolar adenocarcinoma (A549) and human leukemic T cell lymphoma (Jurkat), and two non-cancer cell lines (MCF-10A, Cos-7).
# (§4) The cell lines used for this study were Caco-2 (human colorectal adenocarcinoma cell line, American Type Culture Collection, Manassas, VA, USA (ATCC)), HCT116 (human colorectal carcinoma cells European Collection of Authenticated Cell Cultures, Salisbury, UK (ECACC)), HeLa (human cervical tumor cells, ECACC), MCF-7 (human breast tumor cells, ECACC), MDA-MB-231 (human breast tumor cells, ATCC), A549 (human lung carcinoma cells, ATCC), BLM (human melanoma lung metastases, a gift from prof. K. Smetana, Institute of Anatomy, Charles University in Prague), Jurkat (human leukemia cell line, ECACC), Cos-7 (immortalized monkey kidney fibroblasts, ATCC) and MCF-10A (human mammary epithelial cells, ATCC). Caco-2, MCF-7, BLM, Cos-7 and A549 cells were cultured in Dulbecco’s Modified Eagle’s Medium (DMEM) with high glucose and sodium pyruvate (GE Healthcare, Piscataway, NJ, USA); HCT116 lines, HeLa, MDA-MB-231 and Jurkat were cultured in RPMI-1640 medium; and MCF10A cells were cultured in high glucose DMEM/F12 (Dulbecco’s Modified Eagle’s Medium F12). The media were enriched with 10% fetal bovine serum (FBS) and a 1% solution of a mixture of antibiotics and antimycotics 1× HyClone™ (GE Healthcare, Chicago, IL, USA). DMEM/F12 medium was supplemented with epidermal growth factor (EGF) (20 ng/mL final), hydrocortisone (0.5 μg/mL final) and insulin (10 μg/mL final) (Sigma-Aldrich Chemie, Steinheim, Germany). The cells were placed in an incubator at 37 °C with humidified air containing 5% CO2.
# as §1, with “(IC50). A549 cells were seeded in […] culture plates at a density of 5 × 10^3 per well.” for “(IC50).”
# as §2
# MDA-MB-231 = assay: MTT screening assay, MDA-MB-231; format: cell-based; conditions: Homo sapiens, 72 h incubation
# Source text: as §3, §4
# as §1, with “(IC50). A549 cells were seeded in […] culture plates at a density of 5 × 10^3 per well.” for “(IC50).”
# as §2
# Caco-2 = assay: MTT screening assay, Caco-2; format: cell-based; conditions: Homo sapiens, 72 h incubation
# Source text: as §3, §4
# as §1, with “(IC50). A549 cells were seeded in […] culture plates at a density of 5 × 10^3 per well.” for “(IC50).”
# as §2
# MCF10A = assay: MTT screening assay, MCF10A non-cancer cells; format: cell-based, human; conditions: Homo sapiens, MCF-10A; 72 h incubation, MTT, non-cancer cells
# Source text: as §3, §4
# (§5) The MTT assay is a colorimetric method used to quantify the metabolic activity of cells. MTT (3-(4,5-di-methylthiazol-2-yl)2,5-diphenyltetrazolium bromide) (Sigma-Aldrich Chemie, Steinheim, Germany) is reduced by oxidoreductases in the cytosol of cells to light-absorbing formazan, the presence of which can be measured spectrophotometrically and determines the half-maximal inhibitory concentration (IC50). A549 cells were seeded in […] culture plates at a density of 5 × 10^3 per well. After 24 h of cultivation, the tested substance 49 was added in concentrations of 10, 50 and 100 µM.
# We also incubated the cells with chloroquine at concentrations of 5–20 µM, which was added 1 h before the addition of the test substance, and cisplatin at concentrations of 3–10 µM. Cisplatin was added 24 h after the addition of 49. After 72 h of incubation, 10 µL of MTT (5 mg/mL) was added to each well. After 4 h, formazan crystals formed in the wells, which were dissolved in 100 uL of 10% SDS (sodium dodecyl sulfate). After 24 h, the absorbance was measured at a wavelength of 540 nm using an automated Cytation™ 3 Cell Imaging Multi-Mode Reader (Biotek, Winooski, VT, USA). These experiments were performed in three independent replicates.
# HeLa = assay: MTT screening assay, HeLa; format: cell-based; conditions: Homo sapiens, 72 h incubation
# Source text: as §3, §4
# as §5, with “After 24 h of cultivation, the tested substance 49 was added in concentrations of 10, 50 and 100 µM.” left out
# as §2
# BLM = assay: MTT screening assay, BLM; format: cell-based; conditions: Homo sapiens, 72 h incubation
# A549 = assay: MTT screening assay, A549; format: cell-based; conditions: Homo sapiens, 72 h incubation
# Source text: as §3, §4
# as §5, with “After 24 h of cultivation, the tested substance 49 was added in concentrations of 10, 50 and 100 µM.” left out
# as §2
# HCT116 = assay: MTT screening assay, HCT116; format: cell-based; conditions: Homo sapiens, HCT-116, 72 h incubation
# Source text: as §3, §4
# as §5, with “After 24 h of cultivation, the tested substance 49 was added in concentrations of 10, 50 and 100 µM.” left out
# as §2
# Cos-7 = assay: MTT screening assay, Cos-7 non-cancer cells; format: cell-based, monkey; conditions: Primates, 72 h incubation
# Source text: as §3, §4
# as §5, with “After 24 h of cultivation, the tested substance 49 was added in concentrations of 10, 50 and 100 µM.” left out
# as §2
# Jurkat = assay: MTT screening assay, Jurkat; format: cell-based; conditions: Homo sapiens, 72 h incubation
# Source text: as §3, §4
# as §5, with “After 24 h of cultivation, the tested substance 49 was added in concentrations of 10, 50 and 100 µM.” left out
# as §2
Compound,reduction of cell growth [1] [%],IC50 (MCF-7) [µM],IC50 (MDA-MB-231) [µM],IC50 (Caco-2) [µM],IC50 (MCF10A) [µM],IC50 (HeLa) [µM],IC50 (BLM) [µM],IC50 (A549) [µM],IC50 (HCT116) [µM],melting point [°C],IC50 (Cos-7) [µM],IC50 (Jurkat) [µM]
"N.N.[Cl][Pt][Cl] [CisPt, cis-platin, reference compound]",39,,,,,,,,,,,
"CC(C)(C)OC(=O)n1cc(CNC(=S)Nc2ccc(NC(=S)NCc3cn(C(=O)OC(C)(C)C)c4ccccc34)cc2)c2ccccc21 [Compound 48, N,N′-(1,4-phenylene)bis{N′-[1-(tert-butoxycarbonyl)indol-3-yl]methyl (thiourea)}]",,77 ± 2.1,46 ± 2.5,51.7 ± 4.1,67.3 ± 1.9,65.3 ± 5.3,77.1 ± 4.3,73.1 ± 7.3,51.9 ± 4.7,204 to 206,78.3 ± 2.6,38.8 ± 2.9
"CC(C)(C)OC(=O)n1cc(CN2C(=O)CSC2=Nc2ccc(N=C3SCC(=O)N3Cc3cn(C(=O)OC(C)(C)C)c4ccccc34)cc2)c2ccccc21 [Compound 51a, 2,2′-[1,4-phenylenebis(azanylylidene)]bis{3-[(1-(tert-butoxycarbonyl)-indol-3-yl)methyl]-1,3-thiazolidin-4-one}]",,> 100,> 100,> 100,> 100,> 100,> 100,93.8 ± 1,97.7 ± 3.2,196 to 198,> 100,> 100
"CO[C@@H]1N(C(=O)OC(C)(C)C)c2ccccc2[C@]12CN=C(Nc1ccc(NC3=NC[C@]4(S3)c3ccccc3N(C(=O)OC(C)(C)C)[C@@H]4OC)cc1)S2 [Compound 52a, N,N′-bis[1-(tert-Butoxycarbonyl)-2-methoxy-spiro{indoline-3,5′-[4′,5′]dihydrothiazol-2′-yl}]benzene-1,4-diamine]",,62.9 ± 3.9,8.3 ± 3.2,6.1 ± 2.1,10.1 ± 6.2,6.4 ± 0.7,7.4 ± 2.5,5.95 ± 0.2,5.8 ± 0.3,,7.15 ± 0.3,6.1 ± 0.7
